The results in this text go back to patent US5468760A, “Aralkyl-N-hydroxyureas as inhibitors of 5-lipoxygenase and oxidation of low density lipoprotein” (American Home Products Corporation, priority 1993, dated 1995).

Test [1] concerns low density lipoprotein (LDL). Description: Inhibition of Copper Ion Mediated Oxidation of Low Density Lipoprotein. The test is classed as biochemical. As to conditions: Cu^+2 mediated oxidation of rabbit or monkey LDL; 37° C., 90 minutes; absorbance at 532 nm. Here is the method: 5. Inhibition of Copper Ion Mediated Oxidation of Low Density Lipoprotein
In this in vitro assay, the inhibition of Cu^+2 mediated oxidation of rabbit or monkey LDL by an invention compound is determined spectrophotometricallly. Oxidation of LDL results in the formation of LDL-diene which absorbs light at 532 nm. Inhibition of oxidation of LDL leads to a decrease in absorbance at 532 nm.
Rabbit or monkey LDL is prepared according to the procedures of Havel, Eder and Gragdon, "The Distribution and Chemical Composition of Ultracentrifugally Separated Lipoproteins in Human Serum,: J. Clin. Invest. 34, 1345-1353 (1955) and Parhtasarathy, Wieland and Steriberg, "A Role for Endothelial Cell Lipoxygenase in the Oxidative Modification of Low Density Lipoprotein," Proc. Natl. Acad. Sci. USA 86, 1046-1050 (1989). Test compound solutions are prepared by dissolving the invention compounds in ethanol at concentrations up to 248 μM. The medium used is Dulbecco's phosphate buffered saline containing 0.5 mg/ml bovine serum albumin. For standards, 0 to 10 μl of an aqueous solution of 1,1,3,3-tetraethoxypropane (1 μmol/ml H2 O) in 4.1 ml of medium is used.
Test compound solution (100 μl) is added to 4 ml of medium in incubation tubes. To each tube is added 10 μl of LDL solution and 25 μl of aqueous copper sulfate solution (1.32 mg/ml H2 O). The tubes are incubated at 37° C. for 90 minutes and the oxidation reaction quenched by addition of 1 ml of thiobarbituric acid solution (0.67% in 50% acetic acid). The tubes are heated at 90° C. for 1 hour, then chilled in an ice bath and the chromophore extracted into 2 ml of n-butanol. Absorbence is read at 532 nm and the results are reported as nmols of malondialdehyde equivalents.
Significant differences (p<0.05) are determined by the Dunnett T-test or by the Student-Newman-Keuls Test for significant differences between means. The assay is conducted using several concentrations [I] of the inhibitor test compounds. […] The IC50 is determined by non-linear regression, plotting log [I] vs. % inhibition. […]

In test [2] the test system is LT-dependent bronchoconstriction. Put plainly: Inhibition of Bronchoconstriction in Guinea Pigs Induced by Exogenously Administered Antigen. The class given is in vivo, guinea pig (male). Conditions: Cavia porcellus, 5 min, 5 min post-antigen challenge; for inhibition in vivo at 10 mg/kg: iv, 10 mg/kg i.v. As to the method:
4. Inhibition of Brochoconstriction in Guinea Pigs Induced by Exogenously Administered Antigen
Male guinea pigs (Charles River, Wilmington, Mass.) were sensitized 3-4 weeks prior to antigen challenge by administration of 2 i.m. injections of ovalbumin, 1 into each hind limb (35 mg total). Sensitized animals (500-600 g) were fasted overnight prior to experimentation. Conscious animals were then dosed p.o. with drug or vehicle alone (0.5% Tween 80 in H2 O) at the indicated times prior to antigen challenge, or anesthetized animals were dosed i.v. with drug or vehicle alone (DMSO) 5 min prior to antigen challenge. Animals were anesthetized by urethane (2.8 g/kg i.p.). A carotid artery and jugular vein were cannulated to allow for the monitoring of blood pressure and the administration of drugs, respectively. The trachea was then cannulated and connected to a Harvard Apparatus rodent ventilator (S. Natick, Mass.). Spontaneous respiration was abolished by the administration of succinylcholine (2.5 mg/kg i.v.). The animals were then ventilated with room air at a rate of 65 breaths per min. Airway inflation pressure was measured using a Statham pressure transducer (Gould Instruments, Cleveland, Ohio) connected to the tracheal cannula via a side-arm and recorded on a Grass Instruments recorder (Quincy, Mass.). The tidal volume (approximately 10 cc/kg) was adjusted to give a baseline inflation pressure of 8-10 cm H2 O at end inspiration. Animals were then allowed 20 min to stabilize.
Following the stabilization period, animals were given i.v. injections of pyrilamine (5 mg/kg), propranolol (0.1 mg/kg) and indomethacin (10 mg/kg) at 15, 10 and 5 min, respectively, prior to antigen challenge. This pretreatment results in an LT-dependent bronchoconstriction following antigen challenge, which was accomplished by i.v. administration of ovalbumin (10 mg/kg). Only one bronchoconstriction per animal was induced. End-inspiratory inflation pressure (in cm H2 O over baseline) was measured at 5 min post-antigen challenge. A mean value and standard error for the % inhibition of control bronchoconstriction in each drug-treated group was then calculated.

For orientation: IC50 means the concentration at which inhibition is half-maximal. Take `Cc1oc(-c2ccccc2)nc1COc1cccc(CN(O)C(N)=O)c1` [Example 1, 1-Hydroxy-1-[3-(5-methyl-2-phenyl-oxazol-4-ylmethoxy)-benzyl]-urea]: half-maximal inhibition in test [1] (IC50) required 0.64 µM.
What is called inhibition in vivo is the change of the read-out against control, counted positive when it falls. Turning to `NC(=O)N(O)Cc1cccc(OCc2csc(-c3ccccc3)n2)c1` [Example 5, 1-Hydroxy-1-[3-(2-phenyl-thiazol-4-ylmethoxy)-benzyl]-urea], in test [2] (po, 25 mg/kg p.o.), the inhibition in vivo at 25 mg/kg is 29%.
With `NC(=O)N(O)Cc1cccc(OCc2csc(-c3ccc(Cl)cc3)n2)c1` [Example 6, 1-Hydroxy-1-[3-[2-(4-chloro-phenyl)-thiazol-4-ylmethoxy]-benzyl]-urea], in test [2], the inhibition in vivo at 10 mg/kg came to 70%. Also, in test [1], half-maximal inhibition (IC50) required 0.59 µM.
Taken in the same sequence, the figures for `Cc1oc(-c2ccc(F)cc2)nc1COc1cccc(CN(O)C(N)=O)c1` [Example 9, 1-[3-[2-(4-fluorophenyl)-5-methyl-oxazol-4-ylmethoxy]-benzyl]-1-hydroxy-urea] were 65% and 0.57 µM.
Take `Cc1oc(-c2ccccc2)nc1COc1cc(F)cc(CN(O)C(N)=O)c1` [Example 13, 1-[3-Fluoro-5-(5-methyl-2-phenyl-oxazol-4-ylmethoxy)-benzyl]-1-hydroxy-urea]: in test [2], 10 mg/kg produced 29% inhibition in vivo.
